In patent US20070225242A1, “Method and composition for treating and preventing tumor metastasis in vivo” (The Board of Trustees of the Leland Stanford Junior …, priority 2005, published 2007):

How the values were obtained:
Format in all cases: cell-based
[1] = tested on: MDA231 and SiHa cells; assay: In vitro invasion assay (Matrigel-coated inserts); details: various human cancer cells; 24 hr oxygen deprived
Description: The first step of the metastatic process is cell invasion. […] The invasion of various human cancer cells in vitro was examined. […] Because LOX is a copper-dependent enzyme that can act intracellularly or extracellularly, cells were treated with bathocuprione disulphonate (BCS), a copper chelator that cannot permeate the cell membrane.
Invasive behavior was examined in vitro as previously described. Briefly, cells were serum deprived for 24 h then 2.5×10^4 cells were seeded in triplicate on both Matrigel-coated and uncoated inserts, moved to chambers containing 750 μl of FBS as a chemo-attractant and incubated at in normoxic or oxygen deprived conditions for 24 hr. Treatments with beta-aminoproprionitrile or bathocuprione disulphonate (Sigma) were performed 24 h prior to serum deprivation, and continued throughout the experiment.

[2] = tested on: human cancer cells; assay: Cell viability; details: data not shown
[3] = tested on: FAK; assay: FAK phosphorylation (phospho-FAK immunoblot); details: cells expressing LOX shRNA transfected with mature LOX
Text: Acquisition of motility is required before cells can migrate and invade. Invasive cell migration is a multi-step process^17 that commences with pseudopod protrusion at the leading edge driven by actin polymerization, resulting in focal adhesion formation and the activation of integrin and focal adhesion kinase (FAK). […] LOX protein expression extended along hairlike fibers protruding from the cell surface into the collagen matrix. […] Remodeling of the actin cytoskeleton with increased formation of stress fibers and focal adhesion in MDA231 control cells particularly in hypoxia was observed, which were not seen in cells expressing LOX shRNA.
A role for fibronectin (FN) was sought, because it was strongly associated with LOX expression in the breast cancer microarray data set that was analyzed (data not shown), is reported to regulate invasion, bind to integrins and interact with LOX, and is hypoxia induced. […] FAK phosphorylation could be induced in the cells expressing LOX shRNA by transfection with mature LOX (but not catalytically dead LOX), confirming a role for LOX in FAK phosphorylation. […]
Methods were performed as previously described. […] LOX was analyzed by using a rabbit polyclonal antibody raised against a synthetic peptide of human LOX (EDTSCDYGYHRRFA (SEQ ID NO:1); Open Biosystems). […] Quantification was performed with ImageQuant software.

Cc1cc(-c2ccc(S(=O)(=O)O)cc2)c2ccc3c(-c4ccc(S(=O)(=O)O)cc4)cc(C)nc3c2n1 [BCS, bathocuprione disulphonate]
increased invasion under hypoxia or anoxia [1]: prevented the enhanced invasion of hypoxic cells
cell viability [2]: Neither treatment with BAPN nor treatment with BCS affected cell viability

B1: catalase: catalase (Sigma), removes hydrogen peroxide, a by-product of LOX activity (protein, UniProt P00432 2-527, looked up)
Catalase: ADNRDPASDQMKHWKEQRAAQKPDVLTTGGGNPVGDKLNSLTVGPRGPLLVQDVVFTDEMAHFDRERIPERVVHAKGAGAFGYFEVTHDITRYSKAKVFEHIGKRTPIAVRFSTVAGESGSADTVRDPRGFAVKFYTEDGNWDLVGNNTPIFFIRDALLFPSFIHSQKRNPQTHLKDPDMVWDFWSLRPESLHQVSFLFSDRGIPDGHRHMNGYGSHTFKLVNANGEAVYCKFHYKTDQGIKNLSVEDAARLAHEDPDYGLRDLFNAIATGNYPSWTLYIQVMTFSEAEIFPFNPFDLTKVWPHGDYPLIPVGKLVLNRNPVNYFAEVEQLAFDPSNMPPGIEPSPDKMLQGRLFAYPDTHRHRLGPNYLQIPVNCPYRARVANYQRDGPMCMMDNQGGAPNYYPNSFSAPEHQPSALEHRTHFSGDVQRFNSANDDNVTQVRTFYLKVLNEEQRKRLCENIAGHLKDAQLFIQKKAVKNFSDVHPEYGSRIQALLDKYNEEKPKNAVHTYVQHGSHLSAREKANL
FAK phosphorylation induced by transfection with mature LOX [3]: could be prevented
